Experiments:
Assay type in all cases: in vivo, C57BL/6JNarl mice (male)
[1] = system: MAFLD-mode mice (diet with 60% kcal fat+30% v/v fructose corn syrup); experiment: Animal test: body, liver, spleen and white adipose tissue weights of MAFLD-mode mice; settings: for Epididymal white adipose tissue / Final body weight / Liver weight / Mesenteric white adipose tissue / Perirenal white adipose tissue / Spleen weight: eight weeks, high-fat/fructose diet; for Initial body weight: before the eight-week test
Protocol: (§1) 100 five-week-old C57BL/6JNarl mice (male) were raised in an environment whose temperature was 22-25° C., whose relative humidity was 45%-60%, and which adopted a 12-hour light/12-hour darkness cycle. The mice were fed with common feed and water for three weeks and then randomly divided into 10 groups, whose subsequent treatments are as follows:
Group 1: This was the blank group. The mice in this group were fed with common animal feed and distilled water.
Group 2: This was the control group. The mice in this group were fed with a diet with 60% kcal fat+30% v/v fructose corn syrup (and a 0.5% carboxymethyl cellulose (CMC) solution) and thereby induced to develop into MAFLD-mode mice.
Group 3: This was the low-dosage YF dipeptide group. The mice in this group were fed with the Tyr-Phe dipeptide at a dose of 10 mg/kg/day, in addition to a diet with 60% kcal fat+30% v/v fructose corn syrup.
Group 4: This was the high-dosage YF dipeptide group. The mice in this group were fed with the Tyr-Phe dipeptide at a dose of 50 mg/kg/day, in addition to a diet with 60% kcal fat+30% v/v fructose corn syrup.
Group 5: This was the low-dosage FY dipeptide group. The mice in this group were fed with the Phe-Tyr dipeptide at a dose of 10 mg/kg/day, in addition to a diet with 60% kcal fat+30% v/v fructose corn syrup.
Group 6: This was the high-dosage FY dipeptide group. The mice in this group were fed with the Phe-Tyr dipeptide at a dose of 50 mg/kg/day, in addition to a diet with 60% kcal fat+30% v/v fructose corn syrup.
Group 7: This was the low-dosage EWYF tetrapeptide group. The mice in this group were fed with the Glu-Trp-Tyr-Phe tetrapeptide (which has the sequence of SEQ ID No.: 1) at a dose of 10 mg/kg/day, in addition to a diet with 60% kcal fat+30% v/v fructose corn syrup.
Group 8: This was the high-dosage EWYF tetrapeptide group. The mice in this group were fed with the Glu-Trp-Tyr-Phe tetrapeptide (which has the sequence of SEQ ID No.: 1) at a dose of 50 mg/kg/day, in addition to a diet with 60% kcal fat+30% v/v fructose corn syrup.
Group 9: This was the low-dosage EWFY tetrapeptide group. The mice in this group were fed with the Glu-Trp-Phe-Tyr tetrapeptide (which has the sequence of SEQ ID No.: 2) at a dose of 10 mg/kg/day, in addition to a diet with 60% kcal fat+30% v/v fructose corn syrup.
Group 10: This was the high-dosage EWFY tetrapeptide group. The mice in this group were fed with the Glu-Trp-Phe-Tyr tetrapeptide (which has the sequence of SEQ ID No.: 2) at a dose of 50 mg/kg/day, in addition to a diet with 60% kcal fat+30% v/v fructose corn syrup.
(§2) Each of the four peptides was mixed with 0.5% Carboxymethyl Cellulose (CMC) to form a peptide solution, before the peptide solution was fed into the stomach of each mouse in the corresponding group with a syringe.
(§3) The test lasted eight weeks. The body weights of, and the amounts of food consumed by, the mice in each group were measured and recorded each week. The mice were sacrificed at the end of the test, and the livers, spleens, and white adipose tissue of the mice in each group were weighed.

[2] = system: MAFLD-mode mice (diet with 60% kcal fat+30% v/v fructose corn syrup); experiment: Biochemical analysis of blood (sALT and serum lipid indices) of MAFLD-mode mice; settings: eight weeks
Protocol: as §1, §2, §3
After the test of example 1, blood samples were taken from the mice in each group, and the serum alanine transaminase (sALT), serum triglyceride (sTG), serum total cholesterol (sTC), serum free fatty acid (sFFA), and serum very-low-density lipoprotein (sVLDL) levels of the blood samples were measured.

[3] = system: MAFLD-mode mice (diet with 60% kcal fat+30% v/v fructose corn syrup); experiment: Analysis of the hepatic lipid content (enzymatic colorimetric method) of MAFLD-mode mice; settings: eight weeks, liver; for hVLDL (hepatic very-low-density lipoprotein): calculated as 1/5 of the hepatic triglyceride level;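 as to hTC (hepatic total cholesterol): reported in mg/dL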;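 as to hTG (hepatic triglyceride): reported in mg/dL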;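 as to hVLDL (hepatic very-low-density lipoprotein): reported in mg/dL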
Protocol: as §1, §2, §3
After the test of example 1, the mice in each group were sacrificed, and the livers of the mice were collected in order to measure the hepatic lipid content of the liver of each mouse by an enzymatic colorimetric method. The items measured were hepatic triglyceride (hTG), hepatic total cholesterol (hTC), hepatic free fatty acid (hFFA), and hepatic very-low-density lipoprotein (hVLDL), wherein the hVLDL level was calculated as ⅕ of the hepatic triglyceride level.

[4] = baseline of the 10 mg/kg/day group
[5] = baseline of the 50 mg/kg/day group

| Substance | Epididymal white adipose tissue ([1]; 10 mg/kg/day into the stomach) [g] | Final body weight ([1]; 10 mg/kg/day into the stomach) [g] | Liver weight ([1]; 10 mg/kg/day into the stomach) [g] | Mesenteric white adipose tissue ([1]; 10 mg/kg/day into the stomach) [g] | Perirenal white adipose tissue ([1]; 10 mg/kg/day into the stomach) [g] | Spleen weight ([1]; 10 mg/kg/day into the stomach) [mg] | Epididymal white adipose tissue ([1]; 50 mg/kg/day into the stomach) [g] | Final body weight ([1]; 50 mg/kg/day into the stomach) [g] | Liver weight ([1]; 50 mg/kg/day into the stomach) [g] | Mesenteric white adipose tissue ([1]; 50 mg/kg/day into the stomach) [g] | Perirenal white adipose tissue ([1]; 50 mg/kg/day into the stomach) [g] | Spleen weight ([1]; 50 mg/kg/day into the stomach) [mg] | Initial body weight [1, 4] [g] | Initial body weight [1, 5] [g] | sALT (serum alanine transaminase) ([2]; 10 mg/kg/day) [IU/L] | sFFA (serum free fatty acid) ([2]; 10 mg/kg/day) [mEq/L] | sTC (serum total cholesterol) ([2]; 10 mg/kg/day) [mg/dL] | sTG (serum triglyceride) ([2]; 10 mg/kg/day) [mg/dL] | sVLDL (serum very-low-density lipoprotein) ([2]; 10 mg/kg/day) [mg/dL] | sALT (serum alanine transaminase) ([2]; 50 mg/kg/day) [IU/L] | also measured |
| --- | --- | --- | --- | --- | --- | --- | --- | --- | --- | --- | --- | --- | --- | --- | --- | --- | --- | --- | --- | --- | --- |
| Glu-Trp-Phe-Tyr (EWFY) [groups 9 (10 mg/kg/day) and 10 (50 mg/kg/day)] | 1.294 ± 0.330 | 30.04 ± 1.70 | 1.028 ± 0.068 | 0.276 ± 0.081 | 0.513 ± 0.132 | 56.6 ± 7.0 | 0.983 ± 0.231 | 28.59 ± 1.82 | 0.985 ± 0.072 | 0.234 ± 0.056 | 0.445 ± 0.077 | 53.5 ± 5.7 | 22.89 ± 1.08 | 22.78 ± 1.79 | 45.6 ± 13.91 | 0.849 ± 0.235 | 147.45 ± 25.19 | 100.53 ± 20.83 | 20.11 ± 4.17 | 34.2 ± 16.20 | sFFA (serum free fatty acid) ([2]; 50 mg/kg/day): 0.757 ± 0.303 mEq/L; sTC (serum total cholesterol) ([2]; 50 mg/kg/day): 135.78 ± 23.48 mg/dL; sTG (serum triglyceride) ([2]; 50 mg/kg/day): 91.47 ± 18.50 mg/dL; sVLDL (serum very-low-density lipoprotein) ([2]; 50 mg/kg/day): 18.29 ± 3.70 mg/dL; hFFA (hepatic free fatty acid) ([3]; 10 mg/kg/day): 111.78 ± 27.75 mEq/L; hTC (hepatic total cholesterol) ([3]; 10 mg/kg/day): 11.04 ± 1.11 mg/dL; hTG (hepatic triglyceride) ([3]; 10 mg/kg/day): 41.45 ± 9.45 mg/dL; hVLDL (hepatic very-low-density lipoprotein) ([3]; 10 mg/kg/day): 8.29 ± 1.89 mg/dL; hFFA (hepatic free fatty acid) ([3]; 50 mg/kg/day): 74.05 ± 19.5 mEq/L; hTC (hepatic total cholesterol) ([3]; 50 mg/kg/day): 5.96 ± 0.91 mg/dL; hTG (hepatic triglyceride) ([3]; 50 mg/kg/day): 22.47 ± 4.84 mg/dL; hVLDL (hepatic very-low-density lipoprotein) ([3]; 50 mg/kg/day): 4.49 ± 0.97 mg/dL |
| Glu-Trp-Tyr-Phe (EWYF) [groups 7 (10 mg/kg/day) and 8 (50 mg/kg/day)] | 1.146 ± 0.306 | 29.76 ± 1.77 | 0.988 ± 0.084 | 0.263 ± 0.070 | 0.499 ± 0.060 | 55.5 ± 6.4 | 0.909 ± 0.269 | 27.42 ± 1.97 | 0.973 ± 0.089 | 0.199 ± 0.061 | 0.418 ± 0.104 | 51.2 ± 5.9 | 22.84 ± 1.71 | 22.82 ± 1.13 | 39.3 ± 20.17 | 0.782 ± 0.309 | 139.71 ± 20.52 | 96.18 ± 21.42 | 19.24 ± 4.28 | 27.9 ± 14.00 | sFFA (serum free fatty acid) ([2]; 50 mg/kg/day): 0.692 ± 0.24 mEq/L; sTC (serum total cholesterol) ([2]; 50 mg/kg/day): 126.96 ± 24.59 mg/dL; sTG (serum triglyceride) ([2]; 50 mg/kg/day): 81.84 ± 20.39 mg/dL; sVLDL (serum very-low-density lipoprotein) ([2]; 50 mg/kg/day): 16.37 ± 4.08 mg/dL; hFFA (hepatic free fatty acid) ([3]; 10 mg/kg/day): 108.17 ± 26.92 mEq/L; hTC (hepatic total cholesterol) ([3]; 10 mg/kg/day): 10.74 ± 1.38 mg/dL; hTG (hepatic triglyceride) ([3]; 10 mg/kg/day): 39.45 ± 9.93 mg/dL; hVLDL (hepatic very-low-density lipoprotein) ([3]; 10 mg/kg/day): 7.89 ± 1.99 mg/dL; hFFA (hepatic free fatty acid) ([3]; 50 mg/kg/day): 87.71 ± 21.90 mEq/L; hTC (hepatic total cholesterol) ([3]; 50 mg/kg/day): 8.19 ± 1.07 mg/dL; hTG (hepatic triglyceride) ([3]; 50 mg/kg/day): 31.49 ± 8.04 mg/dL; hVLDL (hepatic very-low-density lipoprotein) ([3]; 50 mg/kg/day): 6.29 ± 1.61 mg/dL |
| Phe-Tyr [FY] | 1.328 ± 0.234 | 30.10 ± 1.29 | 1.037 ± 0.089 | 0.289 ± 0.055 | 0.544 ± 0.077 | 58.8 ± 7.2 | 1.220 ± 0.301 | 28.93 ± 1.27 | 0.991 ± 0.078 | 0.257 ± 0.067 | 0.487 ± 0.098 | 54.2 ± 5.6 | 22.88 ± 1.09 | 22.75 ± 1.10 | 53.1 ± 21.40 | 1.03 ± 0.338 | 158.43 ± 20.37 | 106.80 ± 23.45 | 21.36 ± 4.69 | 42.6 ± 17.60 | sFFA (serum free fatty acid) ([2]; 50 mg/kg/day): 0.905 ± 0.179 mEq/L; sTC (serum total cholesterol) ([2]; 50 mg/kg/day): 146.76 ± 19.73 mg/dL; sTG (serum triglyceride) ([2]; 50 mg/kg/day): 97.80 ± 22.91 mg/dL; sVLDL (serum very-low-density lipoprotein) ([2]; 50 mg/kg/day): 19.56 ± 4.58 mg/dL; hFFA (hepatic free fatty acid) ([3]; 10 mg/kg/day): 119.27 ± 29.07 mEq/L; hTC (hepatic total cholesterol) ([3]; 10 mg/kg/day): 12.06 ± 1.19 mg/dL; hTG (hepatic triglyceride) ([3]; 10 mg/kg/day): 44.58 ± 6.77 mg/dL; hVLDL (hepatic very-low-density lipoprotein) ([3]; 10 mg/kg/day): 8.92 ± 1.35 mg/dL; hFFA (hepatic free fatty acid) ([3]; 50 mg/kg/day): 112.49 ± 25.02 mEq/L; hTC (hepatic total cholesterol) ([3]; 50 mg/kg/day): 10.97 ± 1.2 mg/dL; hTG (hepatic triglyceride) ([3]; 50 mg/kg/day): 41.49 ± 8.52 mg/dL; hVLDL (hepatic very-low-density lipoprotein) ([3]; 50 mg/kg/day): 8.30 ± 1.70 mg/dL |

Reference: patent publication US20240409581A1, “SMALL-MOLECULE PEPTIDE AND USE THEREOF AGAINST METABOLIC-[…] LIVER DISEASE AND FOR REDUCING BODY WEIGHT” (Tunghai University, priority 2023, published 2024)
